Laboratory results: patent publication US7927632B2, “Compositions for sterilizing spores of spore-forming microorganisms comprising the extracts of torilidis fructus” (CJ Cheiljedang Corporation, priority 2005, dated 2011)

Each compound was assayed on spores of Bacillus subtilis (assay: Sterilization effect on Bacillus subtilis spores by total viable cell count). Details: direct mechanism (surfactant ingredients) or indirect mechanism (germination inducers), ingredients acting jointly within the extract.
Procedure: Bacillus subtilis spores were selected for use in an antimicrobial test against a spore-forming microorganism.
Vegetative cells of Bacillus subtilis ATCC 6633 were sub-cultured, streaked onto tryptic soy agar (TSA) plates, and incubated at 30° C. for 48 hrs. The plates were then stored at a low temperature of 5° C. and used as a seed culture. After the seed culture was identified to have no morphological abnormality by microscopic observation, it was spread onto a nutrient agar plate containing magnesium sulfate (NAMS), and incubated at 30° C. for 48 hrs. After 10^10-10^12 spores had emerged, the plate was washed with physiological saline, and the spores were scratched with a platinum loop and transferred into a sterile tube. The spores were then centrifuged at 4° C. at 12,000 rpm for 2 min, and this centrifugation was carried out once more. After being microscopically observed to ensure the state of the spores, the pellet was subjected to on-off ultrasonication for 5 min to destroy only the vegetative cells, and was then centrifuged again. Spore formation was further confirmed by a Dorner method, and the spores were stored at −20° C. until use for an antimicrobial test.
The antimicrobial plant materials were extracted with 75% ethanol, concentrated in a vacuum, and freeze-dried to provide aqueous or powdered antimicrobial materials. […] An antimicrobial test against spores of Bacillus subtilis, the representative spore-forming microorganism, was performed by optical density analysis at 600 nm and by counting of the total number of viable cells grown on a nutrient agar plate.
Optical density analysis is a method of indirectly analyzing the degree of growth of vegetative cells and spores by measuring OD values at 600 nm for vegetative cells and spores cultured in tryptic soy broth (TSB) at 37° C. for 18 hrs. The plant materials were primarily screened for candidates considered effective in sterilization by optical density analysis. Then, the candidates were further assessed for their antimicrobial effects by viable cell count. In detail, a spore suspension was mixed with physiological saline and a natural antimicrobial material (1% final concentration). The mixture was agitated at 30° C. for 3 hrs, and was then centrifuged at 12,000 rpm. After the supernatant, considered to contain the added antimicrobial material, was discarded, the pellet remaining in an Ependorf tube was covered with distilled water and centrifuged again to eliminate residual antimicrobial material. This washing step was repeated three times to obtain only spores treated with a natural antimicrobial material. This was done to evaluate the sterilization effects of the natural antimicrobial materials on pure spore samples.

Structure (SMILES)	sterilization effect attributed to ingredients of the extract
CC(=O)OC1CC2CCC1(C)C2(C)C (centres unmarked) [bornyl acetate]	about 10^1
CC(=O)OC/C=C(\C)CCC=C(C)C [geranyl acetate]	about 10^1
C[C@H](N)C(=O)O [alanine]	about 10^2
OC[C@@H](O)[C@@H](O)[C@H](O)[C@H](O)CO [mannitol]	about 10^2
OC[C@@H](O)[C@H](O)[C@@H](O)CO [xylitol]	about 10^2
